Measured values published in patent US20260262643A1, “HERBICIDAL BENZOXAZINES” (FMC CORPORATION, priority 2022, published 2026).

Experiments:
wheat [1] = assay: Test C preemergence; type: in vivo, Triticum aestivum; conditions: for Plant response rating, Wheat: Preemergence, 125 g ai/ha, 0 to 100 scale, 0 no effect, 100 complete control
How it was run: (§1)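 Seeds in loam–sand blend received preemergence directed soil spray of test chemicals in non-phytotoxic solvent with surfactant; postemergence treatment was applied at one- to two-leaf stage (2–10 cm). After 10 days in greenhouse, injury rated visually versus untreated controls, 0 (no effect) to 100 (complete control).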

rice = assay: Test D flooded paddy test; type: in vivo, Oryza sativa; conditions: 250 g ai/ha, applied to paddy water, visual rating after 13 to 14 days, scale 0 to 100 (0 no effect, 100 complete control)
How it was run: (§2)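 Plants at the 2-leaf stage were grown in pots flooded to 3 cm, and compound was applied directly into the paddy water, with depth kept throughout. After 13–14 days in a greenhouse, injury was rated visually against untreated controls on a 0–100 scale (100 = complete control); a dash means not tested.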

corn [2] = assay: Test C preemergence; type: in vivo, Zea mays; conditions: for Plant response rating, Corn: Preemergence, 125 g ai/ha, 0 to 100 scale, 0 no effect, 100 complete control
How it was run: as §1

barnyardgrass [3] = assay: Test C postemergence; type: in vivo, Echinochloa crusgalli; conditions: 10 days, 0 to 100 scale (0 no effect, 100 complete control)
How it was run: as §1

corn [4] = assay: Test C postemergence; type: in vivo, Zea mays; conditions: 10 days, 0 to 100 scale (0 no effect, 100 complete control)
How it was run: as §1

ragweed [5] = assay: Test C preemergence; type: in vivo, Ambrosia artemisiifolia; conditions: for Plant response rating, Ragweed: Preemergence, 125 g ai/ha, 0 to 100 scale, 0 no effect, 100 complete control
How it was run: as §1

ryegrass, Italian [6] = assay: Test C preemergence; type: in vivo, Lolium multiflorum; conditions: for Plant response rating, Ryegrass, Italian: Preemergence, 125 g ai/ha, 0 to 100 scale, 0 no effect, 100 complete control
How it was run: as §1

green foxtail [7] = assay: Test C postemergence; type: in vivo, Setaria viridis; conditions: 10 days, 0 to 100 scale (0 no effect, 100 complete control)
How it was run: as §1

green foxtail [8] = assay: Test C preemergence; type: in vivo, Setaria viridis; conditions: for Plant response rating, Foxtail, Green: Preemergence, 125 g ai/ha, 0 to 100 scale, 0 no effect, 100 complete control
How it was run: as §1

horseweed = assay: Test C postemergence; type: in vivo, Erigeron canadensis; conditions: 10 days, 0 to 100 scale (0 no effect, 100 complete control)
How it was run: as §1

kochia [9] = assay: Test C postemergence; type: in vivo, Bassia scoparia; conditions: 10 days, 0 to 100 scale (0 no effect, 100 complete control)
How it was run: as §1

oat, wild [10] = assay: Test C postemergence; type: in vivo, Avena fatua; conditions: 10 days, 0 to 100 scale (0 no effect, 100 complete control)
How it was run: as §1

barnyardgrass [11] = assay: Test C preemergence; type: in vivo, Echinochloa crusgalli; conditions: for Plant response rating, Barnyardgrass: Preemergence, 125 g ai/ha, 0 to 100 scale, 0 no effect, 100 complete control
How it was run: as §1

blackgrass [12] = assay: Test C postemergence; type: in vivo, Alopecurus myosuroides; conditions: 10 days, 0 to 100 scale (0 no effect, 100 complete control)
How it was run: as §1

barnyardgrass [13] = assay: Test D flooded paddy test; type: in vivo, Echinochloa crus-galli; conditions: 250 g ai/ha, applied to paddy water, visual rating after 13 to 14 days, scale 0 to 100 (0 no effect, 100 complete control)
How it was run: as §2

pigweed, palmer [14] = assay: Test C preemergence; type: in vivo, Amaranthus palmeri; conditions: for Plant response rating, Pigweed, Palmer: Preemergence, 125 g ai/ha, 0 to 100 scale, 0 no effect, 100 complete control
How it was run: as §1

soybean [15] = assay: Test C preemergence; type: in vivo, Glycine max; conditions: for Plant response rating, Soybean: Preemergence, 125 g ai/ha, 0 to 100 scale, 0 no effect, 100 complete control
How it was run: as §1

blackgrass [16] = assay: Test C preemergence; type: in vivo, Alopecurus myosuroides; conditions: for Plant response rating, Blackgrass: Preemergence, 125 g ai/ha, 0 to 100 scale, 0 no effect, 100 complete control
How it was run: as §1

pigweed, palmer [17] = assay: Test C postemergence; type: in vivo, Amaranthus palmeri; conditions: 10 days, 0 to 100 scale (0 no effect, 100 complete control)
How it was run: as §1

sedge, umbrella = assay: Test D flooded paddy test; type: in vivo, Cyperus difformis; conditions: 250 g ai/ha, applied to paddy water, visual rating after 13 to 14 days, scale 0 to 100 (0 no effect, 100 complete control)
How it was run: as §2

oat, wild [18] = assay: Test C preemergence; type: in vivo, Avena fatua; conditions: Preemergence, 125 g ai/ha; 0 to 100 scale, 0 no effect, 100 complete control
How it was run: as §1

ducksalad = assay: Test D flooded paddy test; type: in vivo, Heteranthera limosa; conditions: 250 g ai/ha, applied to paddy water, visual rating after 13 to 14 days, scale 0 to 100 (0 no effect, 100 complete control)
How it was run: as §2

kochia [19] = assay: Test C preemergence; type: in vivo, Bassia scoparia; conditions: for Plant response rating, Kochia: Preemergence, 125 g ai/ha, 0 to 100 scale, 0 no effect, 100 complete control
How it was run: as §1

ryegrass, Italian [20] = assay: Test C postemergence; type: in vivo, Lolium multiflorum; conditions: 10 days, 0 to 100 scale (0 no effect, 100 complete control)
How it was run: as §1

galium = assay: Test C postemergence; type: in vivo, Galium aparine; conditions: 10 days, 0 to 100 scale (0 no effect, 100 complete control)
How it was run: as §1

soybean [21] = assay: Test C postemergence; type: in vivo, Glycine max; conditions: 10 days, 0 to 100 scale (0 no effect, 100 complete control)
How it was run: as §1

ragweed [22] = assay: Test C postemergence; type: in vivo, Ambrosia artemisiifolia; conditions: 10 days, 0 to 100 scale (0 no effect, 100 complete control)
How it was run: as §1

wheat [23] = assay: Test C postemergence; type: in vivo, Triticum aestivum; conditions: 10 days, 0 to 100 scale (0 no effect, 100 complete control)
How it was run: as §1

[24] = 500 g ai/ha, preemergence, 0 to 100 scale (0 no effect, 100 complete control)

Structure (SMILES): CCOC[C@H]1CN(C(=O)c2cc(-n3cnc(C(C)C)n3)cc3c2OCO3)c2cccc(Cl)c2O1 [Compound 400]
- Plant response rating, Wheat (wheat [1]): 0
- Plant response rating, Rice (Flood) (rice): 0
- Plant response rating, Corn (corn [2]): 0
- Plant response rating, Barnyardgrass (barnyardgrass [3]; 500 g ai/ha, postemergence): 50
- Plant response rating, Corn (corn [4]; 500 g ai/ha, postemergence): 50
- Plant response rating, Ragweed (ragweed [5]): 30
- Plant response rating, Ryegrass, Italian (ryegrass, Italian [6]): 60
- Plant response rating, Foxtail, Green (green foxtail [7]; 500 g ai/ha, postemergence): 40
- Plant response rating, Foxtail, Green (green foxtail [8]): 70
- Plant response rating, Horseweed (horseweed; 500 g ai/ha, postemergence): 20
- Plant response rating, Kochia (kochia [9]; 500 g ai/ha, postemergence): 90
- Plant response rating, Oat, Wild (oat, wild [10]; 500 g ai/ha, postemergence): 20
- Plant response rating, Barnyardgrass (barnyardgrass [11]): 50
- Plant response rating, Blackgrass (blackgrass [12]; 500 g ai/ha, postemergence): 70
- Plant response rating, Barnyardgrass (Flood) (barnyardgrass [13]): 15
- Plant response rating, Pigweed, Palmer (pigweed, palmer [14]): 100
- Plant response rating, Soybean (soybean [15]): 20
- Plant response rating, Blackgrass (blackgrass [16]): 0
- Plant response rating, Pigweed, Palmer (pigweed, palmer [17]; 500 g ai/ha, postemergence): 100
- Plant response rating, Sedge, Umbrella (Flood) (sedge, umbrella): 40
- Plant response rating, Oat, Wild (oat, wild [18]): 0
- Plant response rating, Ducksalad (Flood) (ducksalad): 45
- Plant response rating, Kochia (kochia [19]): 50

Structure (SMILES): C[C@H]1CN(C(=O)c2cccc(-n3cnc(OS(C)(=O)=O)n3)c2)c2cccc(Cl)c2O1 [Compound 356]
- Plant response rating, Ryegrass, Italian (ryegrass, Italian [20]; 500 g ai/ha, postemergence): 80
- Plant response rating, Ryegrass, Italian (ryegrass, Italian [20]; Postemergence, 125 g ai/ha): 30
- Wheat plant response rating (wheat [1]; [24]): 0
- Plant response rating, Wheat (wheat [1]): 0
- Plant response rating, Rice (Flood) (rice): 0
- Corn plant response rating (corn [2]; [24]): 10
- Plant response rating, Corn (corn [2]): 0
- Plant response rating, Barnyardgrass (barnyardgrass [3]; 500 g ai/ha, postemergence): 20
- Plant response rating, Barnyardgrass (barnyardgrass [3]; Postemergence, 125 g ai/ha): 10
- Plant response rating, Galium (galium; 500 g ai/ha, postemergence): 100
- Plant response rating, Galium (galium; Postemergence, 125 g ai/ha): 90
- Plant response rating, Corn (corn [4]; 500 g ai/ha, postemergence): 20
- Plant response rating, Corn (corn [4]; Postemergence, 125 g ai/ha): 10
- Plant response rating, Soybean (soybean [21]; 500 g ai/ha, postemergence): 100
- Plant response rating, Soybean (soybean [21]; Postemergence, 125 g ai/ha): 100
- Plant response rating, Ragweed (ragweed [22]; 500 g ai/ha, postemergence): 30
- Plant response rating, Ragweed (ragweed [22]; Postemergence, 125 g ai/ha): 20
- Ragweed plant response rating (ragweed [5]; [24]): 0
- Plant response rating, Ragweed (ragweed [5]): 0
- Ryegrass, Italian plant response rating (ryegrass, Italian [6]; [24]): 80
- Plant response rating, Ryegrass, Italian (ryegrass, Italian [6]): 70
- Plant response rating, Foxtail, Green (green foxtail [7]; 500 g ai/ha, postemergence): 30
- Plant response rating, Foxtail, Green (green foxtail [7]; Postemergence, 125 g ai/ha): 10
- Foxtail, Green plant response rating (green foxtail [8]; [24]): 90
- Plant response rating, Foxtail, Green (green foxtail [8]): 30
- Plant response rating, Horseweed (horseweed; 500 g ai/ha, postemergence): 40
- Plant response rating, Horseweed (horseweed; Postemergence, 125 g ai/ha): 30
- Plant response rating, Kochia (kochia [9]; 500 g ai/ha, postemergence): 80
- Plant response rating, Kochia (kochia [9]; Postemergence, 125 g ai/ha): 50
- Plant response rating, Oat, Wild (oat, wild [10]; 500 g ai/ha, postemergence): 20
- Plant response rating, Oat, Wild (oat, wild [10]; Postemergence, 125 g ai/ha): 10
- Barnyardgrass plant response rating (barnyardgrass [11]; [24]): 50
- Plant response rating, Barnyardgrass (barnyardgrass [11]): 10
- Plant response rating, Blackgrass (blackgrass [12]; 500 g ai/ha, postemergence): 50
- Plant response rating, Blackgrass (blackgrass [12]; Postemergence, 125 g ai/ha): 0
- Plant response rating, Barnyardgrass (Flood) (barnyardgrass [13]): 0
- Plant response rating, Wheat (wheat [23]; 500 g ai/ha, postemergence): 20
- Plant response rating, Wheat (wheat [23]; Postemergence, 125 g ai/ha): 10
- Pigweed, Palmer plant response rating (pigweed, palmer [14]; [24]): 100
- Plant response rating, Pigweed, Palmer (pigweed, palmer [14]): 40
- Soybean plant response rating (soybean [15]; [24]): 0
- Plant response rating, Soybean (soybean [15]): 0
- Blackgrass plant response rating (blackgrass [16]; [24]): 20
- Plant response rating, Blackgrass (blackgrass [16]): 0
- Plant response rating, Pigweed, Palmer (pigweed, palmer [17]; 500 g ai/ha, postemergence): 70
- Plant response rating, Pigweed, Palmer (pigweed, palmer [17]; Postemergence, 125 g ai/ha): 40
- Plant response rating, Sedge, Umbrella (Flood) (sedge, umbrella): 0
- Plant response rating, Ducksalad (Flood) (ducksalad): 0
- Kochia plant response rating (kochia [19]; [24]): 90
- Plant response rating, Kochia (kochia [19]): 0
